From PMC12153055 (Organometallics, 2025)

Columns and labels:
[1] = test system: A2780cis cisplatin-resistant ovarian cancer cells; assay: MTT cytotoxicity assay, A2780cis cells; format: cell-based, human; details: 72 h exposure, mean ± SD of three experiments
Protocol: (§1) The stability of [1]-Cl-[4]-Cl was evaluated in aqueous phosphate-buffered solution (PBS, pH 7.4) using UV–visible spectroscopy. […] The cytotoxicity of the compounds was measured according to a standard MTT assay against human breast cancer (MCF7 and MCF7CR) and ovarian cancer (A2780 and A2780cis) cell lines, and also nontumorigenic MCF10A and human embryonic kidney HEK293T cells (Table ).
(§2) All cell lines were grown in a humidified 5% CO2 environment at 37 °C in dedicated media. Growth media comprised minimum essential medium (MEM) supplemented with 10% FBS, 1% sodium pyruvate, antibiotics, and antimycotic agents for MCF7. MCF10A cells were cultured in a DMEM/F12 Ham’s mixture supplemented with 5% equine serum, 20 ng/mL EGF, 10 μg/mL insulin, […], antibiotics, and antimycotics. MCF7-CR cells were grown in minimum essential medium (MEM), 10% FBS supplemented with 0.1 mg/mL cisplatin, sodium pyruvate, antibiotics, and antimycotics. A2780 and A2780cis cells were cultured in RPMI 1640 GlutaMAX, and HEK293T cells were cultured in DMEM GlutaMAX medium containing 10% heat-inactivated FBS and antibiotics. The effect exerted on cell viability by the compounds was determined using the 3-(4,5-dimethylthiazol-2-yl)-2,5-diphenyltetrazolium bromide (MTT) assay. After individual treatments with 0–100 μM of the compound for 72 h, MTT was added to the culture media at a final concentration of 0.5 mg/mL and incubated for 2 h at 37 °C. Cisplatin was used as a positive control. The medium was replaced with 100 μL of DMSO, and after 10 min, the optical density was recorded at 550 nm on a microplate reader. At least six cultures were used for each data point. Chemicals (Merck-Sigma, Milan, Italy) and plasticware (Corning, Milan, Italy) were cell culture grade.

[2] = test system: dsDNA oligomer; assay: SPR biosensor binding to surface-anchored dsDNA oligomer; details: surface-blocked DNA oligomer
Protocol: The DNA binding ability of curcuminoid ligands and their complexes was evaluated by using a Surface plasmon resonance (SPR) biosensor. The monoexponential nature of binding kinetics for all the compounds is consistent with the presence of a single high-affinity site on DNA (Figure ).
The binding kinetics/affinities of the molecules of interest for DNA were studied according to a previously described biosensor-based method. Briefly, streptavidin was anchored to a carboxylate surface via EDC/NHS chemistry, and 5′-biotinylated dsDNA oligomer (sequence: 3′-[…]-5′) was coupled to surface-blocked streptavidin. Compounds were independently added to the DNA-coated surface at different concentrations, each time following binding kinetics up to equilibrium. PBS buffer was used for both the dissociation and the regeneration steps. Experimental data were fitted to both mono- and biexponential models, and the validity of each model was assessed by a standard F-test procedure. The binding sites on DNA were mapped according to independent competitive binding assays individually using a minor groove binder (GelRed) and a major groove binder (methyl green), respectively. Briefly, GelRed displacement was monitored by comparing the emission spectra of solutions containing different concentrations of curcuminoid-like ligands/complexes (0–100 μM), 20 μM DNA, and GelRed (10 μM) in 10 mM phosphate buffer, pH 7.4. Similarly, methyl green displacement assay was performed by monitoring the absorbance at 630 nm upon addition of candidate competitors (0–100 μM), 100 μM DNA, and methyl green (10 μM) in 50 mM Tris–HCl buffer and 7.5 mM MgSO4, pH 7.5.

[3] = target: 20S proteasome trypsin-like activity (Homo sapiens, UniProt Q99436); assay: Isolated 20S proteasome, trypsin-like activity (Z-Leu-Ser-Thr-Arg-AMC); format: biochemical; details: 0–100 μM, 1 h, 37 °C, pH 8.0
Protocol: (§3) Proteasome inhibition by the compounds was evaluated with respect to three major activities of the 20S proteasome, namely, chymotrypsin-like, trypsin-like, and caspase-like activities.
(§4) The effect of the compounds on the activity of the isolated 20S proteasome was tested using specific synthetic fluorogenic peptide substrates (Suc-Leu-Leu-Val-Tyr-AMC, Z-Leu-Ser-Thr-Arg-AMC, and Z-Leu-Leu-Glu-AMC for chymotrypsin-like, trypsin-like, and peptidyl glutamyl peptide hydrolase activity, respectively) as reported elsewhere. Briefly, individual mixtures consisting of the compounds (0–100 μM), 1 μg of isolated 20S proteasome, the specific substrate, and 50 mM Tris–HCl pH 8.0 up to a final volume of 100 μL were incubated at 37 °C, and after 1 h, the fluorescence measurements of the hydrolyzed AMC were recorded on a SpectraMax Gemini XPS microplate reader (λexc = 365 nm, λem = 449 nm).

[4] = test system: MCF7-CR cisplatin-resistant breast cancer cells; assay: MTT cytotoxicity assay, MCF7CR cells; format: cell-based, human; details: 72 h exposure, mean ± SD of three experiments
Protocol: as §1, §2

[5] = test system: MCF7 human breast adenocarcinoma cells; assay: MTT cytotoxicity assay, MCF7 cells; format: cell-based
Protocol: as §1, §2

[6] = target: 20S proteasome PGPH (caspase-like) activity (Homo sapiens, UniProt P28072); assay: Isolated 20S proteasome, peptidyl glutamyl peptide hydrolase (caspase-like) activity (Z-Leu-Leu-Glu-AMC); format: biochemical; details: 0–100 μM, 1 h, 37 °C, pH 8.0
Protocol: as §3, §4

[7] = test system: A2780 human ovarian carcinoma cells; assay: MTT cytotoxicity assay, A2780 cells; format: cell-based
Protocol: as §1, §2

[8] = Solubility in water (qualitative); format: physicochemical
[9] = test system: HEK293T human embryonic kidney cells; assay: MTT cytotoxicity assay, HEK293T cells; format: cell-based; details: 72 h exposure, mean ± SD of three experiments
Protocol: as §1, §2

[10] = test system: MCF10A nontumorigenic cells; assay: MTT cytotoxicity assay, MCF10A cells; format: cell-based, human; details: 72 h exposure, mean ± SD of three experiments
Protocol: as §1, §2

[11] = test system: p62; assay: Western blot quantification of p62 in MCF7 cells; format: cell-based, human; details: 10 μM, 24 h
Protocol: Since no significant correlation emerged among cytotoxicity, DNA binding affinity, and proteasome inhibition, the effects of the treatment on the expression levels of p62 were evaluated. p62 is a multifunctional binding protein that is involved in signaling pathways of many cellular activities, including autophagy, whose abnormal expression is associated with malignancies, breast cancer in particular. […] This effect was more evident for the free ligand, in agreement with its higher cytotoxicity to breast cancer cells compared with that of the corresponding ruthenium complex (Figure ).
4 Representative autoradiographs (upper panel) and densitometric analyses (lower panel) of p62 levels in MCF7 cells treated with 10 μM of HZPbdcurc and [3]-Cl for 24 h (*p < 0.01 compared with the control; #p < 0.01 compared with [3]-Cl).
Semiquantitative analysis of p62 was performed by Western blotting upon individual 24 h treatments of MCF-7 cells with 10 μM of HZPbdcurc or [Ru(p-cym)(HZPbdcurc)-Cl]-Cl. Treated cells were lysed, and 15 μg of total protein was electrophoresed on 12% SDS-PAGE, then protein bands were electroblotted onto PVDF membranes (Millipore–Milan, Italy). After incubation with anti-p62 monoclonal antibody (Merck Sigma–Milan, Italy), the bands were immunodetected on a ChemiDoc MP imaging system (Bio-Rad - Milan, Italy). […] Western blot results were analyzed using Fiji software.

[12] = target: 20S proteasome chymotrypsin-like activity (Homo sapiens, UniProt P28074); assay: Isolated 20S proteasome, chymotrypsin-like activity (Suc-Leu-Leu-Val-Tyr-AMC); format: biochemical; details: 0–100 μM, 1 h, 37 °C, pH 8.0
Protocol: as §3, §4

[13] = MTT, 72 h exposure, mean ± SD of three experiments

kass [2]: 10281 ± 5155 M^–1s^–1
kdiss [2]: 0.02 ± 0.01 s^–1
Kd ([2]; equilibrium dissociation constant): 2.2 ± 1.5 µM
IC50 [3]: > 100 µM
IC50 [6]: > 100 µM
solubility in water [8]: partly soluble in H2O
IC50 [12]: > 100 µM
Structure (SMILES): Cc1ccc(C(C)C)cc1.Oc1ccc(/C=C/c2cc(/C=C/c3ccc(O)cc3)n(-c3ccccn3)n2)cc1.[Cl-].[Cl][Ru+] [[3]Cl, [Ru(p-cym)(HZPbdcurc)Cl]Cl]
IC50 [1]: 2.7 ± 0.4 µM
IC50 [4]: 31.9 ± 6 µM
IC50 [5, 13]: 23 ± 6 µM
SI MCF7 MCF10A ([5]; selectivity index, values equal IC50 MCF10A / IC50 MCF7): 0.68
IC50 [7, 13]: 2 ± 0.1 µM
SI A2780 HEK293T ([7]; selectivity index, values equal IC50 HEK293T / IC50 A2780): 9.50
IC50 [9]: 19 ± 2 µM
IC50 [10]: 15.6 ± 8.9 µM
p62 levels [11]: an increase in the levels of p62 was observed
